Measurements as given in patent US20130197085A1, “AGENT AND METHOD FOR STABILIZING MEMBRANE PROTEIN” (priority 2007, published 2013).

Experiments:
[1] = test system: MDCKII cells expressing GFP; assay: Transcellular transport assay of [^3H] TC across MDCKII monolayer, GFP control cells; type: cell-based; conditions: 24 hours
Experimental: MDCKII cells were dispersed on a Transwell membrane insert (pore size: […]; Falcon) of a 24-well plate, resulting in a density of 1.5×10^5 cells/insert. Two days after the culture, the confluent cells were infected with recombinant adenoviruses having the cDNAs of wild-type, E297G and D482G BSEPs, and GFP, at 50 MOI. […] After completion of the treatment for 24 hours, a transcellular transport assay was carried out (see Mita et al., Am J Physiol Gastrointest Liver Physiol 290: G550-G556, 2006).
The apparent efflux clearance across the apical membrane (PSapical) was calculated by dividing a steady rate of the transcellular transport of [^3H] TC for 2 hours by the intracellular concentration of the [^3H] TC at the termination of the experiment (2 hours later).

[2] = target: T1, BSEP on canalicular membrane (Rattus norvegicus, UniProt O70127); assay: Transport assay using canalicular membrane vesicles (CMVs) from treated rats; type: in vivo, SD rat
T1 construct: from tissue; host or cells: liver of male SD rats: in vivo for A27, canalicular membrane vesicles for A28 and A29
T1 sequence (O70127 1-1321): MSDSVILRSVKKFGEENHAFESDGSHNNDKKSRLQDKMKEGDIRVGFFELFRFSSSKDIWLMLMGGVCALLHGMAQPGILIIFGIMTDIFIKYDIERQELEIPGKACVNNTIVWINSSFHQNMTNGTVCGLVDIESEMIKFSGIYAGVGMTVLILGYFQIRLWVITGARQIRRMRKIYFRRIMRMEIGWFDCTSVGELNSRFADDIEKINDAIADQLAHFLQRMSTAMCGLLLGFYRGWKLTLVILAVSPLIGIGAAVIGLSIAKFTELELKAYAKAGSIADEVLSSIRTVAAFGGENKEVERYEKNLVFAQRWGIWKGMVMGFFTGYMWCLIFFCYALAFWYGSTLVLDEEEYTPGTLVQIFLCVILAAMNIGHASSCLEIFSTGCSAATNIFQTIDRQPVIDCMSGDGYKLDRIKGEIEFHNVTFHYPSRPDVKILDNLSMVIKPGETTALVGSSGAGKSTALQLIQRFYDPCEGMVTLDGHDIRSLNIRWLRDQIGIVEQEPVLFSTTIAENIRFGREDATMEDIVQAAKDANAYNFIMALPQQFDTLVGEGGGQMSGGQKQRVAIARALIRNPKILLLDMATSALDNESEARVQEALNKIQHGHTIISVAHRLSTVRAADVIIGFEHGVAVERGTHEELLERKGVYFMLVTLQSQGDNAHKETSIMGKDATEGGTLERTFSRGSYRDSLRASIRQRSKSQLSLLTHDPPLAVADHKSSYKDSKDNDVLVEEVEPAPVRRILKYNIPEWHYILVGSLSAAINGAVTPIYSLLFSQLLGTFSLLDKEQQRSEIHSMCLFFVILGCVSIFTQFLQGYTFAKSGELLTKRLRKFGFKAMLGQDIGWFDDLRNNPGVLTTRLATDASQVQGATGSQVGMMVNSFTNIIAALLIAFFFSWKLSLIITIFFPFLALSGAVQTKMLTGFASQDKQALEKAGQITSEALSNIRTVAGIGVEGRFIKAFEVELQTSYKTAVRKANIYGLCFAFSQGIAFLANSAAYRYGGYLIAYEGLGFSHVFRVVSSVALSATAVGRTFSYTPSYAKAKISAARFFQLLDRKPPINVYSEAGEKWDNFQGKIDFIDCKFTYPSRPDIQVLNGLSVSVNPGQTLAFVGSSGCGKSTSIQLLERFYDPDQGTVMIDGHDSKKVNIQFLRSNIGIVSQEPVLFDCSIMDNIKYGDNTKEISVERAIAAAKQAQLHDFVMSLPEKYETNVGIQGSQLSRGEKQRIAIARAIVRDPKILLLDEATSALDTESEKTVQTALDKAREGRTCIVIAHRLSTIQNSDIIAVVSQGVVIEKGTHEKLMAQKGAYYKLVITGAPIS
Experimental: (§1) […] 4PBA or a vehicle was given to a male SD rat (6- to 7-week-old) for 10 days, divided over 3 administrations. Canalicular membrane vesicles were prepared from the liver of the rat (Akita et al., Biochim Biophys Acta, 1511: 7-16, 2001), and they were then used in Western blotting and a transport assay. Such transport assay was carried out by a rapid filtration method (Hayashi et al., Biochim Biophys Acta, 1738: 54-62, 2005).

BSEP = target: T2, BSEP (Rattus norvegicus, UniProt O70127); assay: Western blotting of canalicular membrane vesicles (CMVs) from treated rats; type: in vivo, SD rat; conditions: CMVs from SD rats treated at 0.6 g/kg/day for 10 days
T2 construct: from tissue; host or cells: liver of male SD rats: in vivo for A27, canalicular membrane vesicles for A28 and A29
T2 sequence (O70127 1-1321): T1 sequence (O70127 1-1321)
Experimental: as §1

P-gp = assay: as above; type: in vivo, SD rat; conditions: CMVs from SD rats treated at 0.6 g/kg/day for 10 days
Experimental: as §1

O=C(O)CCCc1ccccc1 [4PBA, 4-phenylbutyric acid]
efflux of [^3H] TC from the apical side to the base side ([1]; 1 mM): did not influence | efflux of [^3H] TC from the base side to the apical side ([1]; 1 mM): such effects were not observed | PSapical value ([1]; 4PBA treatment 1 mM): no changes | ATP-dependent uptake of [^3H] TC by CMVs, higher than CMVs from vehicle-treated rats ([2]; CMVs from SD rats treated at 0.6 g/kg/day for 10 days): 3 times | Vmax value of [^3H] TC uptake by CMVs ([2]; CMVs from SD rats treated with 4PBA at 0.6 g/kg/day for 10 days): 1,000±110 | expression level of BSEP in CMVs, increase (BSEP): 3.2 times | expression level of P-gp in CMVs (P-gp): not changed
